“Also recorded” adds a separate entry of the source. Structures can show the parent of a compound that is named as a salt. Where two headings read alike, the source gives them in different places. One block for each compound: values may come before it.
Assays:
[1] = test system: CYP2B6; experiment: CYP2B6 enzyme induction assay in cryopreserved primary human hepatocytes (PHH); type: in vitro ADME; details: for Assigned classification CYP2B6: PHH;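 for Assigned classification CYP2B6: code 1 means positive inducer and 0 means non-inducer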
[2] = test system: CYP2B6; details: cited from earlier work
[3] = test system: CYP1A2; details: cited from earlier work; for Induction in vivo: CYP1A2, human, ref Table 1
[4] = cited from earlier work
[5] = test system: CYP1A2; experiment: CYP1A2 enzyme induction assay in cryopreserved primary human hepatocytes (PHH); type: in vitro ADME; details: for Prediction in vivo inducer / Induction in vitro: CYP1A2, PHH; for Prediction in vivo inducer: Cmax/F2 >0.5 criterion; for Induction in vitro: positive in one donor in each of the three laboratories; for Assigned classification CYP1A2: PHH;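 for Assigned classification CYP1A2: code 1 means positive inducer and 0 means non-inducer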
[6] = test system: CYP3A4; experiment: CYP3A4 enzyme induction assay in cryopreserved primary human hepatocytes (PHH); details: for Induction in vitro / Prediction in vivo inducer: CYP3A4, PHH; for Assigned classification CYP3A4: PHH
[7] = test system: CYP3A4; details: cited from earlier work; for Induction in vivo: CYP3A4, human in vivo reference classification (Table 11)
[8] = test system: CYP1A2; experiment: CYP1A2 enzyme induction assay in cryopreserved HepaRG cells (phenacetin probe, LC/MS); type: in vitro ADME, human; details: for Prediction in vivo inducer: Cmax/F2 >0.5 criterion; for Induction in vitro: positive in one batch in each of the three laboratories; for Assigned classification CYP1A2: HepaRG; for Assigned classification CYP1A2: key: 1=Positive=inducer; 0=Negative=non-inducer
[9] = test system: CYP; details: CYP isoforms induced; ref Abadie et al. (2009), Richert et al. (2010), Preissner et al. (2010), Hoffmann et al. (2014); cited from earlier work
[10] = test system: CYP2B6; experiment: CYP2B6 enzyme induction assay in cryopreserved HepaRG cells (bupropion probe, LC/MS); type: in vitro ADME, human; details: for Prediction in vivo inducer: Cmax/F2 >0.5 criterion; for Induction in vitro: positive in one batch in each of the three laboratories; for Assigned classification CYP2B6: HepaRG; for Assigned classification CYP2B6: key: 1=Positive=inducer; 0=Negative=non-inducer
[11] = test system: CYP3A4; experiment: CYP3A4 enzyme induction assay in cryopreserved HepaRG cells (midazolam probe, LC/MS); type: in vitro ADME, human; details: for Assigned classification CYP3A4: HepaRG; for Assigned classification CYP3A4: key: 1=Positive=inducer; 0=Negative=non-inducer
[12] = CYP2B6, PHH, Cmax/F2 >0.5 criterion
[13] = CYP2B6, human in vivo reference classification
[14] = human in vivo plasma concentration, normal dose
[15] = human in vivo, normal dose (Table 10)
[16] = human in vivo, CYP named without remark = induced, ref references in the cell, Washington University database, Hoffmann et al. (2014), Pelkonen et al. (2008), Hukkanen et al. (2012)

Induction in vitro ([1]; CYP2B6, PHH): No | Prediction in vivo inducer ([1]; CYP2B6, PHH): No | Prediction in vivo inducer [1, 12]: negative | Assigned classification CYP2B6 ([1]; Lab 1, batch 0 6 A): 0 | Assigned classification CYP2B6 ([1]; Lab 1, batch 4 0 8): 0 | Assigned classification CYP2B6 ([1]; Lab 1, batch 8 0 8): 0 | Assigned classification CYP2B6 ([1]; Lab 2, batch 0 6 A): 0 | Assigned classification CYP2B6 ([1]; Lab 2, batch 4 0 8): 0 | Assigned classification CYP2B6 ([1]; Lab 2, batch 8 0 8): 0 | Assigned classification CYP2B6 ([1]; Lab 3, batch 0 6 A): 1 | Assigned classification CYP2B6 ([1]; Lab 3, batch 4 0 8): 0 | Assigned classification CYP2B6 ([1]; Lab 3, batch 8 0 8): 0 | Prediction in vivo inducer [5]: No | Induction in vitro [5]: No | Assigned classification CYP1A2 ([5]; Lab 1, batch 0 6 A): 0 | Assigned classification CYP1A2 ([5]; Lab 1, batch 4 0 8): 0 | Assigned classification CYP1A2 ([5]; Lab 1, batch 8 0 8): 0 | Assigned classification CYP1A2 ([5]; Lab 2, batch 0 6 A): 0 | Assigned classification CYP1A2 ([5]; Lab 2, batch 4 0 8): 0 | Assigned classification CYP1A2 ([5]; Lab 2, batch 8 0 8): 0 | Assigned classification CYP1A2 ([5]; Lab 3, batch 0 6 A): 0 | Assigned classification CYP1A2 ([5]; Lab 3, batch 4 0 8): 0 | Assigned classification CYP1A2 ([5]; Lab 3, batch 8 0 8): 0 | Induction in vitro [6]: No | Prediction in vivo inducer [6]: No | Assigned classification CYP3A4 ([6]; Lab 1, batch 0 6 A): 0 | Assigned classification CYP3A4 ([6]; Lab 1, batch 4 0 8): 0 | Assigned classification CYP3A4 ([6]; Lab 1, batch 8 0 8): 0 | Assigned classification CYP3A4 ([6]; Lab 2, batch 0 6 A): 0 | Assigned classification CYP3A4 ([6]; Lab 2, batch 4 0 8): 0 | Assigned classification CYP3A4 ([6]; Lab 2, batch 8 0 8): 0 | Assigned classification CYP3A4 ([6]; Lab 3, batch 0 6 A): 0 | Assigned classification CYP3A4 ([6]; Lab 3, batch 4 0 8): 0 | Assigned classification CYP3A4 ([6]; Lab 3, batch 8 0 8): 0 | Prediction in vivo inducer ([8]; CYP1A2, HepaRG cells): No | Induction in vitro ([8]; CYP1A2, HepaRG cells): No | Assigned classification CYP1A2 ([8]; Lab 1, batch 20): 0 | Assigned classification CYP1A2 ([8]; Lab 1, batch 35): 0 | Assigned classification CYP1A2 ([8]; Lab 1, batch 36): 0 | Assigned classification CYP1A2 ([8]; Lab 2, batch 20): 0 | Assigned classification CYP1A2 ([8]; Lab 2, batch 35): 0 | Assigned classification CYP1A2 ([8]; Lab 2, batch 36): 0 | Assigned classification CYP1A2 ([8]; Lab 3, batch 20): 1 | Assigned classification CYP1A2 ([8]; Lab 3, batch 35): 0 | Assigned classification CYP1A2 ([8]; Lab 3, batch 36): 0 | Prediction in vivo inducer ([10]; CYP2B6, HepaRG cells, listed as Sotalol): No | Prediction in vivo inducer ([10]; CYP2B6, HepaRG cells, listed as sotalol): correctly predicted | Induction in vitro ([10]; CYP2B6, HepaRG cells): No | Assigned classification CYP2B6 ([10]; Lab 1, batch 20): 0 | Assigned classification CYP2B6 ([10]; Lab 1, batch 35): 0 | Assigned classification CYP2B6 ([10]; Lab 1, batch 36): 0 | Assigned classification CYP2B6 ([10]; Lab 2, batch 20): 0 | Assigned classification CYP2B6 ([10]; Lab 2, batch 35): 0 | Assigned classification CYP2B6 ([10]; Lab 2, batch 36): 0 | Assigned classification CYP2B6 ([10]; Lab 3, batch 20): 0 | Assigned classification CYP2B6 ([10]; Lab 3, batch 35): 0 | Assigned classification CYP2B6 ([10]; Lab 3, batch 36): 0 | Induction in vitro ([11]; CYP3A4, HepaRG cells): No | Prediction in vivo inducer ([11]; CYP3A4, HepaRG cells): No | Assigned classification CYP3A4 ([11]; Lab 1, batch 20): 0 | Assigned classification CYP3A4 ([11]; Lab 1, batch 35): 0 | Assigned classification CYP3A4 ([11]; Lab 1, batch 36): 0 | Assigned classification CYP3A4 ([11]; Lab 2, batch 20): 0 | Assigned classification CYP3A4 ([11]; Lab 2, batch 35): 0 | Assigned classification CYP3A4 ([11]; Lab 2, batch 36): 0 | Assigned classification CYP3A4 ([11]; Lab 3, batch 20): 0 | Assigned classification CYP3A4 ([11]; Lab 3, batch 35): 0 | Assigned classification CYP3A4 ([11]; Lab 3, batch 36): 0
Structure (SMILES): CC(C)NCC(O)c1ccc(NS(C)(=O)=O)cc1 (centres unmarked) [Sotalol hydrochloride]
Induction in vivo [2, 13]: No | Induction in vivo ([2]; CYP2B6, human, ref Table 1): No | Induction in vivo [3]: No | Cmax [4, 14]: 2 µM | Cmax [4, 15]: 2 µM | Induction in vivo [7]: No | CYP induction in vitro (human hepatocytes) [9]: No

F2 ([1]; CYP2B6, PHH): 2.09 to 6.27 µM | Induction in vitro ([1]; CYP2B6, PHH): Yes | Prediction in vivo inducer ([1]; CYP2B6, PHH): Yes | Prediction in vivo inducer [1, 12]: positive | Assigned classification CYP2B6 ([1]; Lab 1, batch 0 6 A): 1 | Assigned classification CYP2B6 ([1]; Lab 1, batch 4 0 8): 1 | Assigned classification CYP2B6 ([1]; Lab 1, batch 8 0 8): 0 | Assigned classification CYP2B6 ([1]; Lab 2, batch 0 6 A): 1 | Assigned classification CYP2B6 ([1]; Lab 2, batch 4 0 8): 1 | Assigned classification CYP2B6 ([1]; Lab 2, batch 8 0 8): 0 | Assigned classification CYP2B6 ([1]; Lab 3, batch 0 6 A): 1 | Assigned classification CYP2B6 ([1]; Lab 3, batch 4 0 8): 1 | Assigned classification CYP2B6 ([1]; Lab 3, batch 8 0 8): 0 | Prediction in vivo inducer [5]: No | Induction in vitro [5]: No | Assigned classification CYP1A2 ([5]; Lab 1, batch 0 6 A): 0 | Assigned classification CYP1A2 ([5]; Lab 1, batch 4 0 8): 1 | Assigned classification CYP1A2 ([5]; Lab 1, batch 8 0 8): 0 | Assigned classification CYP1A2 ([5]; Lab 2, batch 0 6 A): 0 | Assigned classification CYP1A2 ([5]; Lab 2, batch 4 0 8): 0 | Assigned classification CYP1A2 ([5]; Lab 2, batch 8 0 8): 0 | Assigned classification CYP1A2 ([5]; Lab 3, batch 0 6 A): 1 | Assigned classification CYP1A2 ([5]; Lab 3, batch 4 0 8): 0 | Assigned classification CYP1A2 ([5]; Lab 3, batch 8 0 8): 0 | Induction in vitro [6]: Yes | Prediction in vivo inducer [6]: Yes | Assigned classification CYP3A4 ([6]; Lab 1, batch 0 6 A): 1 | Assigned classification CYP3A4 ([6]; Lab 1, batch 4 0 8): 1 | Assigned classification CYP3A4 ([6]; Lab 1, batch 8 0 8): 1 | Assigned classification CYP3A4 ([6]; Lab 2, batch 0 6 A): 1 | Assigned classification CYP3A4 ([6]; Lab 2, batch 4 0 8): 1 | Assigned classification CYP3A4 ([6]; Lab 2, batch 8 0 8): 1 | Assigned classification CYP3A4 ([6]; Lab 3, batch 0 6 A): 1 | Assigned classification CYP3A4 ([6]; Lab 3, batch 4 0 8): 1 | Assigned classification CYP3A4 ([6]; Lab 3, batch 8 0 8): 1 | Prediction in vivo inducer ([8]; CYP1A2, HepaRG cells): Yes | F2 ([8]; CYP1A2, HepaRG cells, in vitro concentration producing 2-fold induction): 56.4 µM | Induction in vitro ([8]; CYP1A2, HepaRG cells): Yes | Assigned classification CYP1A2 ([8]; Lab 1, batch 20): 1 | Assigned classification CYP1A2 ([8]; Lab 1, batch 35): 1 | Assigned classification CYP1A2 ([8]; Lab 1, batch 36): 1 | Assigned classification CYP1A2 ([8]; Lab 2, batch 20): 1 | Assigned classification CYP1A2 ([8]; Lab 2, batch 35): 1 | Assigned classification CYP1A2 ([8]; Lab 2, batch 36): 1 | Assigned classification CYP1A2 ([8]; Lab 3, batch 20): 0 | Assigned classification CYP1A2 ([8]; Lab 3, batch 35): 1 | Assigned classification CYP1A2 ([8]; Lab 3, batch 36): 1 | Prediction in vivo inducer ([10]; CYP2B6, HepaRG cells): Yes | Prediction in vivo inducer ([10]; CYP2B6, HepaRG cells, listed as carbamazepine): correctly classified | F2 ([10]; CYP2B6, HepaRG cells, in vitro concentration producing 2-fold induction): 18.8 µM | Induction in vitro ([10]; CYP2B6, HepaRG cells): Yes | Assigned classification CYP2B6 ([10]; Lab 1, batch 20): 1 | Assigned classification CYP2B6 ([10]; Lab 1, batch 35): 1 | Assigned classification CYP2B6 ([10]; Lab 1, batch 36): 1 | Assigned classification CYP2B6 ([10]; Lab 2, batch 20): 1 | Assigned classification CYP2B6 ([10]; Lab 2, batch 35): 1 | Assigned classification CYP2B6 ([10]; Lab 2, batch 36): 1 | Assigned classification CYP2B6 ([10]; Lab 3, batch 20): 1 | Assigned classification CYP2B6 ([10]; Lab 3, batch 35): 1 | Assigned classification CYP2B6 ([10]; Lab 3, batch 36): 1 | F2 ([11]; CYP3A4, HepaRG cells): 18.8 µM | Induction in vitro ([11]; CYP3A4, HepaRG cells): Yes | Prediction in vivo inducer ([11]; CYP3A4, HepaRG cells): Yes | Assigned classification CYP3A4 ([11]; Lab 1, batch 20): 1 | Assigned classification CYP3A4 ([11]; Lab 1, batch 35): 1 | Assigned classification CYP3A4 ([11]; Lab 1, batch 36): 0 | Assigned classification CYP3A4 ([11]; Lab 2, batch 20): 1 | Assigned classification CYP3A4 ([11]; Lab 2, batch 35): 1 | Assigned classification CYP3A4 ([11]; Lab 2, batch 36): 1 | Assigned classification CYP3A4 ([11]; Lab 3, batch 20): 1 | Assigned classification CYP3A4 ([11]; Lab 3, batch 35): 1 | Assigned classification CYP3A4 ([11]; Lab 3, batch 36): 1
Structure (SMILES): NC(=O)N1c2ccccc2C=Cc2ccccc21 [Carbamazepine]
Induction in vivo [2, 13]: Yes | Induction in vivo ([2]; CYP2B6, human, ref Table 1): Yes | CYP induction in vivo literature reference: CYP2B6 [2, 16]: CYP2B6 | Induction in vivo [3]: Yes | CYP induction in vivo literature reference: CYP1A2 [3, 16]: CYP 1A2 | Cmax [4, 14]: 39 µM | Cmax [4, 15]: 39 µM | Prediction in vivo inducer ([5]; listed as carbamazepine): non-inducer; also recorded: missed the in vivo prediction | Induction in vivo [7]: Yes | CYP induction in vivo literature reference: CYP3A4 [7, 16]: CYP 3A4 | CYP induction in vitro (human hepatocytes) [9]: CYP1A2, CYP2B6, CYP3A4

Source: article PMC6718736, “Validation of in vitro methods for human cytochrome P450 enzyme induction: Outcome of a multi-laboratory study” (Toxicology in Vitro, 2019)
